Patent publication US20240390337A1, “RELA/RSH INHIBITORS FOR THE TREATMENT OR PREVENTION OF MEDICAL BIOFILMS” (DREXEL UNIVERSITY, priority 2021, published 2024)

Legend:
E. coli C biofilm [1] = assay: Biofilm persistence assay with ampicillin (crystal violet); assay type: cell-based
Method: Biofilm persistence and viability were assessed with the hit compounds in combination with an antibiotic. It has been determined that sub-MICs (minimum inhibitory concentration) of antibiotic result in increased biofilm formation. Ampicillin was used in all of the assays due to its bactericidal effect. Sub-MIC concentrations of ampicillin were determined by growth measurements (OD600). […] Biofilm Persistence Assays with Ampicillin: Biofilms were grown for 24 or 48 h as described elsewhere herein. Planktonic cells were removed, and the biofilms were washed twice with 250 μL sterile PBS solution. Two hundred microliters of fresh LB medium with various concentrations of ampicillin were dispensed into the wells. After 18 h of incubation at 37° C., the volume of biofilm was measured by CV staining as described elsewhere herein.

E. coli C [2] = assay: E. coli C aggregation assay; details: high salt, low temperature, amino acid starvation
Method: E. coli C was grown in LB Miller broth at 30° C. with shaking (250 rpm) with or without compounds. E. coli C ΔrelA mutant was also grown as a control. One milliliter of the culture was transferred to standard polypropylene spectrophotometer cuvettes to measure planktonic cells densities (OD600). Remaining cultures were vortexed ˜1 min and 1 mL was aliquoted into cuvettes to measure the total cell densities (OD600). Aggregation was calculated as a ratio of planktonic to total cell density.

P. aeruginosa PA14 [3] = tested on: P. aeruginosa PA14
Method: P. aeruginosa PA14 was grown overnight in LB Miller broth at 37° C. with shaking (250 rpm). […] This was then grown for 18 h at 37° C. Cells were pelleted by centrifugation. One milliliter of supernatant was collected, and 1 mL of chloroform was added to the supernatant. Layers were separated and OD690 was taken for chloroform layer (blue). OD690 was normalized to culture cell density OD600.

RelA enzyme [4] = biological target: T1, RelA enzyme (Escherichia coli, UniProt P0AG20); assay: Semi-HTS and IC50, in vitro RelA ppGpp production assay ([α-32P]GTP); assay type: biochemical, E. coli; details: for IC50: concentration gradient, in vitro radio isotope assay
Method: The next step of the semi-HTS was to run the 40 in silico determined compounds in an in vitro RelA assay at a relatively high concentration of 200 μM, to test if there is any effect on RelA ppGpp production using the α-32P-GTP radio isotope in vitro assay. […] From this assay, two compounds were picked to go into later assays (C14 [4.2%], C22 [13.4%]).
The follow-up assay to the semi-HTS is determination of in vitro half-maximal inhibitory concentration (IC50). In vitro IC50 is completed by a concentration gradient run on the in vitro radio isotope assay (FIG. 29B). […] C14 was originally purchased from Enamine®; however, it was later synthesized in-house as more was needed than could be purchased.
RelA enzyme was purified as described in Example 2.

P. aeruginosa PA14 [5] = assay: Biofilm formation in P. aeruginosa PA14; assay type: cell-based
Method: (§1) Biofilm Inhibition Assays: For biofilm formation on polystyrene surfaces, flat-bottom 96-well microtiter plates (Corning Inc.) were used. […] The biofilm mass was measured by the CV staining assay described elsewhere herein.

P. aeruginosa PA01 = assay: Biofilm formation in P. aeruginosa PA01; assay type: cell-based; details: results not shown
Method: as §1

E. coli C biofilm [6] = assay: Biofilm inhibition assay (crystal violet); assay type: cell-based; details: results not shown
Method: Studies were conducted in 96-well high-throughput assays. In the biofilm inhibition assay, compounds were added to the wells at the beginning of the experiment. For the biofilm dispersal assay, the biofilm was allowed to grow for 24 and 48 h, the wells were washed with sterile phosphate-buffered saline (PBS), and fresh medium supplemented with the compounds was added to the wells. The amount of biofilm was measured after 24 h.
as §1

E. coli C biofilm [7] = assay: Synergistic effects of compounds and ampicillin on biofilm biomass (crystal violet); assay type: cell-based; details: versus antibiotic-only control; for reduction of biofilm biomass at Amp40: ampicillin 40 μg·mL−1, S3-G1A and S3-G1B 50 μM, IDR1018 5 μM; for reduction in biofilm biomass at Amp50: ampicillin 50 μg·mL−1
Method: Biofilm Dispersal Assays: For biofilm formation on polystyrene surfaces, flat-bottom 96-well microtiter plates (Corning Inc.) were used. […] These were allowed to grow for 24 h. The planktonic cells and medium were then aspirated, and the plates were washed twice with 1×PBS. Fresh LB with hit compounds were added to the biofilm wells. These cultures were then allowed to incubate at 37° C. overnight. Cell density were measured (OD600) using a Multiscan Go plate reader (ThermoFisher), and 30 μL Gram crystal violet (CV) (Remel; 3 g crystal violet, 50 mL isopropanol, 50 mL ethanol, 900 mL purified water) was applied for staining for 1 h. Plates were washed with water and air dried, and CV was solubilized with an ethanol:acetone (4:1) solution. The OD570 was determined from this solution, and the biofilm volume was calculated as the ratio of OD570 to OD600. Synergistic Effects of Compounds and Antibiotics: Biofilms were grown for 24, 48, or 72 h as described elsewhere herein. Planktonic cells were then removed, and biofilms were washed twice with 250 μL sterile PBS solution. Two hundred microliter aliquots of fresh LB medium with multiple concentrations of the tested compounds and ampicillin were dispensed into the wells. After 18 h of incubation at 37° C., the biofilm mass was measured as described elsewhere herein. For the AlamarBlue viability test, 4 μL of AlamarBlue (Invitrogen) was added and plates were incubated in a Biotek HT plate reader at 37° C. for 4 h. Cell viability was measured as fluorescence at 530/590 nm (excitation/emission) versus compound concentration or initial cell density.

RelA enzyme [8] = biological target: T1, RelA enzyme; assay: In vitro (p)ppGpp quantification (RelA ppGpp production assay, [γ-32P]ATP, TLC); details: 20 μM compound
Method: The direct (p)ppGpp detection in vivo and in vitro assays relied on different 32P radioactive nucleotides (γ-32P-ATP, α-32P-GTP) for use as substrates, and thin-layer chromatography (TLC) to separate the reaction products (stationary phase: polyethylenimine cellulose).
Both methods required TLC with a stationary phase of a polyethyleneimine (PEI)-cellulose plate and a mobile phase of 1 M potassium phosphate monobasic.
In vitro (p)ppGpp quantification: in vitro (p)ppGpp quantification was carried out. […] Roughly 0.4 μg of RelA protein was added to a 1.5-mL microcentrifuge tube containing a reaction mix composed of 1×PBS, 5 mM MgCl2, 0.5 mM ATP, 0.5 mM GTP, 0.5 mM GDP, and 20 μCi[γ-32P]ATP (3,000 Ci mmol-1; PerkinElmer) and varying concentrations of the compound of interest. These reactions were incubated at 37° C. for 1 h. The reactions were stopped by addition of 5 μL formic acid (88%). The reaction mixtures were then spotted on a stationary-phase polyethyleneimine (PEI)-cellulose TLC plate using potassium phosphate monobasic (1.5 M) as the mobile-phase. The plates were then dried, and the radiation levels were read using a Molecular Dynamics Storage Phosphor Screen. A Molecular Dynamics Storm 840 Phosphor imager Scanner was used to read the phosphor screen and ImageJ was used to process the images.

[9] = tested on: (p)ppGpp production in E. coli C; assay: In vivo (p)ppGpp quantification in E. coli C (32P orthophosphate, serine hydroxamate, TLC); assay type: cell-based; details: 20 μM compound
Method: In vivo (p)ppGpp Quantification: In vivo (p)ppGpp quantification was carried out. One milliliter of overnight cell culture of E. coli C was placed in 1.5-mL microcentrifuge tubes and pelleted. To this pellet was added 50 μL of a reaction mixture containing 20 μCi orthophosphoric acid and 40 μM serine hydroxamate in 1×MOPS minimal medium. The cell pellet was resuspended by gentle vortexing and placed in an incubator for 1 h. Cell growth arrest and cell lysis were completed by addition of 15 μL formic acid (88%). The lysate was then centrifuged to remove any insoluble components and the supernatant was spotted on a stationary-phase PEI-cellulose TLC plate. Plates were processed and analyzed as described elsewhere herein.

E. coli C biofilm [10] = assay: AlamarBlue viability assay of biofilm cells, compounds plus ampicillin; assay type: cell-based
Method: Synergistic Effects of Compounds and Antibiotics: Biofilms were grown for 24, 48, or 72 h as described elsewhere herein. Planktonic cells were then removed, and biofilms were washed twice with 250 μL sterile PBS solution. Two hundred microliter aliquots of fresh LB medium with multiple concentrations of the tested compounds and ampicillin were dispensed into the wells. After 18 h of incubation at 37° C., the biofilm mass was measured as described elsewhere herein. For the AlamarBlue viability test, 4 μL of AlamarBlue (Invitrogen) was added and plates were incubated in a Biotek HT plate reader at 37° C. for 4 h. Cell viability was measured as fluorescence at 530/590 nm (excitation/emission) versus compound concentration or initial cell density.

E. coli C [11] = assay: Cell growth curves (planktonic growth, OD600); details: 30 μg·mL−1
Method: Cell Growth Curves: The effect of the hit compounds on bacterial growth was tested by adding compounds at multiple concentrations to the bacterial culture (100× diluted overnight culture; approximately 10^7 cells) in fresh LB medium. Two hundred microliters aliquots were pipetted into 96-well plates and placed into a Biotek HT or Tecan Infinite M200 Pro plate reader for 18 h at 37° C. Plates were shaken during incubation and the optical density (OD630 or OD600) was measured every 15 min.
The effect of the hit compounds on bacterial growth was tested by adding compounds at 200 μM (with DMSO control) to the bacterial culture (100× diluted overnight culture; approximately 10^7 cells) in fresh LB medium. Two hundred microliter aliquots were pipetted into 96-well plates, which were placed into a Biotek HT or Tecan Infinite M200 Pro plate reader for 18 h at 37° C. Plates were shaken during incubation and the optical density (OD630 or OD600) was measured every 15 min.

Pseudomonas aeruginosa = assay: Toxin production by P. aeruginosa (Example 4, FIG. 42); assay type: cell-based; details: read-out: EC50 of inhibition of toxin production

T1 sequence (P0AG20 whole entry): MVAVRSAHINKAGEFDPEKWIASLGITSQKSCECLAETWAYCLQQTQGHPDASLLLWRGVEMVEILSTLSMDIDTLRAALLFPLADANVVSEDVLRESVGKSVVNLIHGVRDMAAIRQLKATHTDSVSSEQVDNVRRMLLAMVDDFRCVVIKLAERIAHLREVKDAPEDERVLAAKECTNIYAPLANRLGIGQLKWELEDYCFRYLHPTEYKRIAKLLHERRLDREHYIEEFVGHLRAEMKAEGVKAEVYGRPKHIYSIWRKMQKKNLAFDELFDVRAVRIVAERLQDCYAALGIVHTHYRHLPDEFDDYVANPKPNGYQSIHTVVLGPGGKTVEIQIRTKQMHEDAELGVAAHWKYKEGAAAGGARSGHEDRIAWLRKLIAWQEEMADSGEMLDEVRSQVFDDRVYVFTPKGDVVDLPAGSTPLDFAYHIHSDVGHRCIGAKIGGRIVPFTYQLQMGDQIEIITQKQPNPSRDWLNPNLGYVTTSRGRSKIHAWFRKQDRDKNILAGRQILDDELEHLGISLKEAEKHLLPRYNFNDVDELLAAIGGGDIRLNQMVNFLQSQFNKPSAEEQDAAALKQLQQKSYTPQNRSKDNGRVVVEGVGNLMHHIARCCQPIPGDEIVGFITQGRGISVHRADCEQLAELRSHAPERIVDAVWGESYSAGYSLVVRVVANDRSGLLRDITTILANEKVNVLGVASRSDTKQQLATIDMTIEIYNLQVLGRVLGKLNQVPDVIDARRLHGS

## CC1(C)S[C@@H]2[C@H](NC(=O)[C@H](N)c3ccccc3)C(=O)N2[C@H]1C(=O)O [Ampicillin]
E. coli C biofilm [1]
  ampicillin concentration with the highest biofilm biomass: 80 µg/mL
  effect on amount of biofilm: significantly increased the amount of biofilm

## O=C(O)CCNC(=O)c1cccc(-n2cc(Br)cn2)c1 [Compound C22, 3-(3-(4-bromo-1H-pyrazol-1-yl)benzamido)propanoic acid]
E. coli C [2]
  E. coli C aggregation: slightly absent
P. aeruginosa PA14 [3]
  effect on pyocyanin production: produced an effect, it never reached the level of C14
RelA enzyme [4]; 200 μM compound
  ppGpp production relative to the untreated control (set at 100%): 13.4%
RelA enzyme [4]
  IC50: 93 µM
P. aeruginosa PA14 [5]
  biofilm formation compared to the DMSO control: reduced biofilm formation but not significantly
P. aeruginosa PA01
  effect on biofilm formation: little effect
E. coli C biofilm [6]
  effect on biofilm formation: little effect

## IDR1018 [reference compound]
E. coli C biofilm [7]
  reduction of biofilm biomass at Amp40: 75.4%
  reduction in biofilm biomass at Amp50: 65.2%

## CC(C)C(=O)Nc1nc2c(ncn2[C@H]2C[C@H](OC(=O)NCC(=O)NCC(=O)O)[C@@H](COC(=O)NCC(=O)NCC(=O)O)O2)c(=O)[nH]1 [Relacin, reference compound]
RelA enzyme [8]
  reduction of ppGpp production compared to untreated sample, in vitro assay: 45.4%
[9]
  reduction in ppGpp production, in vivo assay: no effect

## O=C(N[C@H](C(=O)O)c1ccc(Cl)cc1)c1cc(-c2ccc(O)cc2)n[nH]1 [Compound S3-G1A, (S)-2-(4-chrlorphenyl)-2-(3-(4-hydroxyphenyl)-1H-pyrazole-5carboxamido) acetic acid]
RelA enzyme [8]
  reduction of ppGpp production compared to untreated sample, in vitro assay: 71.7%
[9]
  reduction in ppGpp production, in vivo assay: 31.4%
E. coli C biofilm [7]
  reduction of biofilm biomass at Amp40: 97.9%
  reduction in biofilm biomass at Amp50: 67.9%
E. coli C biofilm [10]; ampicillin 30 μg·mL−1, compound 50 μM
  reduction of cell viability (AlamarBlue) at Amp30: 55.4%
E. coli C biofilm [10]; higher concentrations of ampicillin (not specified)
  decrease of cell viability (AlamarBlue) at higher concentrations of antibiotic: 29.2%
P. aeruginosa PA14 [3]
  effect on pyocyanin production: small effect
E. coli C [11]
  effect on planktonic growth rate / bacterial growth: no effect

## O=C(O)Cn1cc(C[C@H]2NC(=O)NC2=O)nn1 [Compound C14]
RelA enzyme [4]
  IC50: 54 µM
Pseudomonas aeruginosa
  EC50: 0.0395 µM
